Test results from EPA's ToxValDB 9.5 (doi:10.2903/j.efsa.2015.4001).

Key:
[1] = system: Anas platyrhynchos; details: reproductive
[2] = system: Apis mellifera; details: acute, duration: 48 hours, mortality
[3] = system: Colinus virginianus; details: acute; oral
[4] = system: Mus musculus; details: organ weight
[5] = system: Oryctolagus sp.; details: developmental; development
[6] = system: Rattus norvegicus
[7] = system: Tagia sp.

SMILES: CCOC(=O)COc1cc(-c2nn(C)c(OC(F)F)c2Cl)c(F)cc1Cl [Pyraflufen-ethyl]
- NOAEL [1]: 50 mg/kg-day
- LD50 ([2]; dermal): > 100 µg/piece
- LD50 ([2]; oral, unspecified): > 112 µg/piece
- LD50 [3]: > 2000 mg/kg-day
- NOAEL ([4]; chronic, duration: 18 months): 20 mg/kg-day
- NOAEL ([4]; subchronic, duration: 90 days, oral): 20 mg/kg-day
- NOAEL [5]: 20 mg/kg-day
- LD50 ([6]; acute, oral, mortality): > 5000 mg/kg-day
- NOAEL ([6]; chronic, duration: 2 years, organ weight): 20 mg/kg-day
- NOAEL ([6]; reproduction developmental): 20 mg/kg-day
- LC50 ([7]; acute, duration: 14 days, mortality): > 500 mg/kg
- NOEC ([7]; chronic/long-term): ≥ 250 mg/kg
